Measured values published in ChEMBL document CHEMBL4004883, “Biologically active perspective synthesis of heteroannulated 8-nitroquinolines with green chemistry approach” (Bioorg Med Chem Lett, 2017).
Converted amounts (≈) assume the structure as drawn. The source made the active and inactive calls. The calls are words filed in the database; no cut-off is given here.

Tests used:
[1] = test system: Bacillus subtilis; assay: Antibacterial activity against Bacillus subtilis MTCC 121 at 100 ug incubated for 24 hrs under dark condition by agar well diffusion method; format: functional; settings: MTCC 121, 24 h, read-out: IZ
[2] = Antioxidant activity assessed as total antioxidant capacity measured as ascorbic acid equivalents at 100 ug/ml after 90 mins by phosphomolybdenum method; format: functional
[3] = test system: A549; assay: Induction of apoptosis in human A549 cells assessed as cell shrinkage at IC50 after 48 hrs by acridine orange/ ethidium bromide staining-based fluorescence microscopic method; format: functional
[4] = test system: A549; assay: Induction of apoptosis in human A549 cells assessed as chromatin condensation at IC50 by DAPI staining-based fluorescence microscopic method; format: functional, cell-based
[5] = Antioxidant activity assessed as total antioxidant capacity measured as ascorbic acid equivalents at 60 ug/ml after 90 mins by phosphomolybdenum method; format: functional
[6] = test system: Escherichia coli; assay: Antibacterial activity against Escherichia coli MTCC 1652 at 100 ug incubated for 24 hrs under dark condition by agar well diffusion method; format: functional; settings: MTCC 1652, 24 h, read-out: IZ
[7] = test system: MCF7; assay: Induction of apoptosis in human MCF7 cells assessed as nuclear fragmentation at IC50 by DAPI staining-based fluorescence microscopic method; format: functional, cell-based
[8] = test system: A549; assay: Induction of apoptosis in human A549 cells assessed as cell blebbing at IC50 after 48 hrs by acridine orange/ ethidium bromide staining-based fluorescence microscopic method; format: functional
[9] = Antioxidant activity assessed as assessed as ferric ion reducing activity by measuring absorbance at 700 nm at 100 ug/ml after 20 mins by spectrophotometric method; format: functional
[10] = Antioxidant activity assessed as total antioxidant capacity measured as ascorbic acid equivalents at 20 ug/ml after 90 mins by phosphomolybdenum method; format: functional
[11] = test system: A549; assay: Induction of apoptosis in human A549 cells assessed as nuclear fragmentation at IC50 by DAPI staining-based fluorescence microscopic method; format: functional, cell-based
[12] = test system: MCF7; assay: Induction of apoptosis in human MCF7 cells assessed as cell shrinkage at IC50 after 48 hrs by acridine orange/ ethidium bromide staining-based fluorescence microscopic method; format: functional
[13] = test system: MCF7; assay: Induction of apoptosis in human MCF7 cells assessed as cell blebbing at IC50 after 48 hrs by acridine orange/ ethidium bromide staining-based fluorescence microscopic method; format: functional
[14] = test system: MCF7; assay: Induction of apoptosis in human MCF7 cells assessed as chromatin condensation at IC50 by DAPI staining-based fluorescence microscopic method; format: functional, cell-based
[15] = test system: Bacillus subtilis; assay: Antibacterial activity against Bacillus subtilis MTCC 121 incubated for 24 hrs under dark condition by microwell dilution method; format: functional; settings: MTCC 121, 24 h
[16] = test system: A549; assay: Cytotoxicity against human A549 cells assessed as decrease in cell viability after 48 hrs by MTT assay; format: functional, cell-based; settings: A549, 48 h
[17] = test system: Escherichia coli; assay: Antibacterial activity against Escherichia coli MTCC 1652 incubated for 24 hrs under dark condition by microwell dilution method; format: functional; settings: MTCC 1652, 24 h
[18] = test system: Staphylococcus aureus; assay: Antibacterial activity against Staphylococcus aureus MTCC 96 at 100 ug incubated for 24 hrs under dark condition by agar well diffusion method; format: functional; settings: MTCC 96, 24 h, read-out: IZ
[19] = Antioxidant activity assessed as DPPH radical scavenging activity after 20 mins by UV/VIS Spectrophotometric method; format: functional
[20] = test system: MCF7; assay: Cytotoxicity against human MCF7 cells assessed as decrease in cell viability after 48 hrs by MTT assay; format: functional, cell-based; settings: MCF7, 48 h
[21] = Antioxidant activity assessed as assessed as ferric ion reducing activity by measuring absorbance at 700 nm at 20 ug/ml after 20 mins by spectrophotometric method; format: functional
[22] = test system: Staphylococcus aureus; assay: Antibacterial activity against Staphylococcus aureus MTCC 96 incubated for 24 hrs under dark condition by microwell dilution method; format: functional; settings: MTCC 96, 24 h
[23] = test system: Pseudomonas aeruginosa; assay: Antibacterial activity against Pseudomonas aeruginosa MTCC 102 incubated for 24 hrs under dark condition by microwell dilution method; format: functional; settings: MTCC 102, 24 h
[24] = test system: Pseudomonas aeruginosa; assay: Antibacterial activity against Pseudomonas aeruginosa MTCC 102 at 100 ug incubated for 24 hrs under dark condition by agar well diffusion method; format: functional; settings: MTCC 102, 24 h, read-out: IZ
[25] = Antioxidant activity assessed as assessed as ferric ion reducing activity by measuring absorbance at 700 nm at 60 ug/ml after 20 mins by spectrophotometric method; format: functional

In the case of N#CC1=C(N)OC2=C(CNc3c2cccc3[N+](=O)[O-])C1c1cccs1 (stereo not given), the zone of inhibition at 100 µg/disc [1] is reported as 29 mm, the Activity [2] is reported as 11.8 µgequiv/ml and the Activity [3] is reported as “Active”. For the same molecule, the Activity [4] was “Active”, the Activity [5] was 5.72 µgequiv/ml and the zone of inhibition at 100 µg/disc [6] was 22 mm. For the same molecule, the Activity [7] was “Active”, the Activity [8] was “Active” and the OD [9] was 0.134. For the same molecule, the Activity [10] was 2.19 µgequiv/ml, the Activity [11] was “Active” and the Activity [12] was “Active”. For the same molecule, the Activity [13] was “Active”, the Activity [14] was “Active” and the MIC [15] was 5 µg/mL (≈ 14.2 µM). The IC50 [16] was 15.4 µM, the MIC [17] was 17 µg/mL (≈ 48.2 µM) and the zone of inhibition at 100 µg/disc [18] was 23 mm. It also gave an IC50 [19] of 194.81 µg/mL (≈ 553 µM), an IC50 [20] of 14.3 µM and an OD [21] of 0.098. It also gave an MIC [22] of 5 µg/mL (≈ 14.2 µM), an MIC [23] of 37 µg/mL (≈ 105 µM) and a zone of inhibition at 100 µg/disc [24] of 20 mm. The OD [25] was 0.118.
